Data reported in ChEMBL document CHEMBL3822376, “Potent anticholinesterasic and neuroprotective pyranotacrines as inhibitors of beta-amyloid aggregation, oxidative stress and tau-phosphorylation for Alzheimer's disease” (Eur J Med Chem, 2016).
Activity calls are given as the source filed them. The rule behind the calls is not given here.

System: SH-SY5Y
Experiment: Neuroprotective activity in human SH-SY5Y cells assessed as reversal of 20 nM okadaic acid-induced cell death at 1 to 10 uM after 24 hrs by XTT assay
Type: functional, cell-based
Details: not given
In the case of `CCOC(=O)C1=C(C)Oc2nc3c(c(N)c2C1c1cc2ccc(OC)cc2nc1Cl)CCCC3` (centres undefined), the Activity is reported as “Active”.
In the case of `COC(=O)C1=C(C)Oc2nc3c(c(N)c2C1c1cc2ccc(OC)cc2nc1Cl)CCCCC3` (centres undefined), the Activity is reported as “Active”.
In the case of `COc1ccc2cc(C3C4=C(CC(C)(C)CC4=O)Oc4nc5c(c(N)c43)CCC5)c(Cl)nc2c1` (centres undefined), the Activity is reported as “inactive”.
For `CCOC(=O)C1=C(C)Oc2nc3c(c(N)c2C1c1cc2cc(OC)ccc2nc1Cl)CCCC3` (centres undefined), the Activity was “inactive”.

System: SH-SY5Y
Experiment: Neuroprotective activity against amyloid beta (1 to 40)-induced cell death in human SH-SY5Y cells assessed as increase in cell viability at 10 uM after 48 hrs by XTT assay
Type: functional, cell-based
Details: not given
In the case of `COC(=O)C1=C(C)Oc2nc3c(c(N)c2C1c1cc2ccc(OC)cc2nc1Cl)CCCCC3` (centres undefined), the Activity is reported as “Active”.

Target: Cholinesterase (Equus caballus) (UniProt P81908)
Sequence (P81908 whole entry): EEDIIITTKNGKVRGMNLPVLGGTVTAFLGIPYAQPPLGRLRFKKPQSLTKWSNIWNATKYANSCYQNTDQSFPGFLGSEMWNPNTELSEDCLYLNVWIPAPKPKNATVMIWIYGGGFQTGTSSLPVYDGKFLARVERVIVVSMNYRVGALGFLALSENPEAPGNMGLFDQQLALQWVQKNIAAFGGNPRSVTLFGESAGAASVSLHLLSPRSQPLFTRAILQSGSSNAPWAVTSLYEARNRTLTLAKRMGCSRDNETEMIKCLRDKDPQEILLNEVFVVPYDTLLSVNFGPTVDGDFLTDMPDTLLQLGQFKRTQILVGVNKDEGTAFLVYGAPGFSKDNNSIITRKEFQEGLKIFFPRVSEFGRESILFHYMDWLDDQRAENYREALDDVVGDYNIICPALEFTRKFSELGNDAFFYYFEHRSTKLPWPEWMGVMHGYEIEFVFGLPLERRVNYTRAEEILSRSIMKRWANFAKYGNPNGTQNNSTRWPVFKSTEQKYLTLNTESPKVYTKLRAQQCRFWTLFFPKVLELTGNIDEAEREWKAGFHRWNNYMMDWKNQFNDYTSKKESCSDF
Experiment: Inhibition of horse serum BuChE using […] as substrate at 50 uM preincubated for 15 mins followed by substrate addition by Ellman's method relative to control
Details: not given
Work on `CCOC(=O)C1=C(C)Oc2nc3c(c(N)c2C1c1cc2ccc(OC)cc2nc1Cl)CCCC3` (centres undefined) yielded an inhibition of 50%.
For `COC(=O)C1=C(C)Oc2nc3c(c(N)c2C1c1cc2ccc(OC)cc2nc1Cl)CCCCC3` (centres undefined), the inhibition was 50%.

Target: Acetylcholinesterase (Electrophorus electricus, UniProt O42275)
Sequence (O42275 whole entry): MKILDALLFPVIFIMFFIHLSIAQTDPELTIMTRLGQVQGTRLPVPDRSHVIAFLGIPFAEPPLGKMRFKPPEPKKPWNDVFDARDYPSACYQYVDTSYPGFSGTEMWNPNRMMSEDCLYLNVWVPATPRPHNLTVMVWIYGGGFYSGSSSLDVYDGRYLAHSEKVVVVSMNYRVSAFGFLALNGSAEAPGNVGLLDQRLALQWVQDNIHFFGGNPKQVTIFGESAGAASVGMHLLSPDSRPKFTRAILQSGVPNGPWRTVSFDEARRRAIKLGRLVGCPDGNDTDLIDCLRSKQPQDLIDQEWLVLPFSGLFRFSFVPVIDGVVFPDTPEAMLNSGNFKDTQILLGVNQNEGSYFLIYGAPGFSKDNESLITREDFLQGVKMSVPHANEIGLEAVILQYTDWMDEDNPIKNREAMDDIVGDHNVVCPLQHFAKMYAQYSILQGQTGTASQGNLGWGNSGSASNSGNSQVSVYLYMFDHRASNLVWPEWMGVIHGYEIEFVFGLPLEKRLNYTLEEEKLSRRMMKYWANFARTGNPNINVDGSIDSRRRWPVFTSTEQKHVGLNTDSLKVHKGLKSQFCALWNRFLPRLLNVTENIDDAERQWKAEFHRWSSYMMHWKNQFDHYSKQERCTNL
Experiment: not given
Details: not given
In the case of `CCOC(=O)C1=C(C)Oc2nc3c(c(N)c2C1c1cc2ccc(OC)cc2nc1Cl)CCCC3` (centres undefined), the IC50 is reported as 1.52 µM.
`COC(=O)C1=C(C)Oc2nc3c(c(N)c2C1c1cc2ccc(OC)cc2nc1Cl)CCCCC3` (centres undefined) gave an IC50 of 1.87 µM.
For `COc1ccc2cc(C3C4=C(CC(C)(C)CC4=O)Oc4nc5c(c(N)c43)CCC5)c(Cl)nc2c1` (centres undefined), the IC50 was 0.58 µM.
`CCOC(=O)C1=C(C)Oc2nc3c(c(N)c2C1c1cc2cc(OC)ccc2nc1Cl)CCCC3` (centres undefined) gave an IC50 of 2.23 µM.

System: HepG2
Experiment: not given
Details: not given
`COc1ccc2cc(C3C4=C(CC(C)(C)CC4=O)Oc4nc5c(c(N)c43)CCC5)c(Cl)nc2c1` (centres undefined) showed an EC50 of 1920 µM.

System: SH-SY5Y
Experiment: cells
Details: Homo sapiens, 24 h
Description: Neuroprotective activity against rotenone/oligomycin-A-induced cell death in human SH-SY5Y cells assessed as increase in cell viability after 24 hrs by XTT assay
With `CCOC(=O)C1=C(C)Oc2nc3c(c(N)c2C1c1cc2ccc(OC)cc2nc1Cl)CCCC3` (centres undefined) the EC50 was 2.3 µM.
Work on `COC(=O)C1=C(C)Oc2nc3c(c(N)c2C1c1cc2ccc(OC)cc2nc1Cl)CCCCC3` (centres undefined) yielded an EC50 of 5.63 µM.
With `COc1ccc2cc(C3C4=C(CC(C)(C)CC4=O)Oc4nc5c(c(N)c43)CCC5)c(Cl)nc2c1` (centres undefined) the EC50 was 0.63 µM.
In the case of `CCOC(=O)C1=C(C)Oc2nc3c(c(N)c2C1c1cc2cc(OC)ccc2nc1Cl)CCCC3` (centres undefined), the EC50 is reported as 0.34 µM.

System: not listed separately
Experiment: in vitro
Details: human, SH-SY5Y cells
Description: Neurotoxicity in human SH-SY5Y cells assessed as cell viability at 10 uM after 24 hrs by XTT assay relative to control
In the case of `CCOC(=O)C1=C(C)Oc2nc3c(c(N)c2C1c1cc2ccc(OC)cc2nc1Cl)CCCC3` (centres undefined), the viability at 24 h, 10 µM is reported as 125%.
For `COC(=O)C1=C(C)Oc2nc3c(c(N)c2C1c1cc2ccc(OC)cc2nc1Cl)CCCCC3` (centres undefined), the viability at 24 h, 10 µM was 85.1%.
Molecule `COc1ccc2cc(C3C4=C(CC(C)(C)CC4=O)Oc4nc5c(c(N)c43)CCC5)c(Cl)nc2c1` (centres undefined) has a viability at 24 h, 10 µM of 102%.
With `CCOC(=O)C1=C(C)Oc2nc3c(c(N)c2C1c1cc2cc(OC)ccc2nc1Cl)CCCC3` (centres undefined) the viability at 24 h, 10 µM was 116%.

System: not listed separately
Experiment: in vitro
Details: human, SH-SY5Y cells
Remark: another data set of the same source
Description: Neurotoxicity in human SH-SY5Y cells assessed as cell viability at 25 uM after 24 hrs by XTT assay relative to control
`CCOC(=O)C1=C(C)Oc2nc3c(c(N)c2C1c1cc2ccc(OC)cc2nc1Cl)CCCC3` (centres undefined) showed a viability at 24 h, 25 µM of 123%.
`COC(=O)C1=C(C)Oc2nc3c(c(N)c2C1c1cc2ccc(OC)cc2nc1Cl)CCCCC3` (centres undefined) gave a viability at 24 h, 25 µM of 98.6%.
`COc1ccc2cc(C3C4=C(CC(C)(C)CC4=O)Oc4nc5c(c(N)c43)CCC5)c(Cl)nc2c1` (centres undefined) gave a viability at 24 h, 25 µM of 124%.
`CCOC(=O)C1=C(C)Oc2nc3c(c(N)c2C1c1cc2cc(OC)ccc2nc1Cl)CCCC3` (centres undefined) showed a viability at 24 h, 25 µM of 125%.

System: not listed separately
Experiment: in vitro
Details: human, SH-SY5Y cells
Remark: another data set of the same source
Description: Neurotoxicity in human SH-SY5Y cells assessed as cell viability at 50 uM after 24 hrs by XTT assay relative to control
In the case of `CCOC(=O)C1=C(C)Oc2nc3c(c(N)c2C1c1cc2ccc(OC)cc2nc1Cl)CCCC3` (centres undefined), the viability at 24 h, 50 µM is reported as 129%.
`COC(=O)C1=C(C)Oc2nc3c(c(N)c2C1c1cc2ccc(OC)cc2nc1Cl)CCCCC3` (centres undefined) showed a viability at 24 h, 50 µM of 75.1%.
In the case of `COc1ccc2cc(C3C4=C(CC(C)(C)CC4=O)Oc4nc5c(c(N)c43)CCC5)c(Cl)nc2c1` (centres undefined), the viability at 24 h, 50 µM is reported as 94.9%.
`CCOC(=O)C1=C(C)Oc2nc3c(c(N)c2C1c1cc2cc(OC)ccc2nc1Cl)CCCC3` (centres undefined) gave a viability at 24 h, 50 µM of 68.5%.

System: not listed separately
Experiment: in vitro
Details: human, HepG2 cells
Description: Hepatotoxicity in human HepG2 cells assessed as reduction in cell viability by MTT assay
For `CCOC(=O)C1=C(C)Oc2nc3c(c(N)c2C1c1cc2ccc(OC)cc2nc1Cl)CCCC3` (centres undefined), the EC50 was 942 µM.
In the case of `COC(=O)C1=C(C)Oc2nc3c(c(N)c2C1c1cc2ccc(OC)cc2nc1Cl)CCCCC3` (centres undefined), the EC50 is reported as 745 µM.
Molecule `CCOC(=O)C1=C(C)Oc2nc3c(c(N)c2C1c1cc2cc(OC)ccc2nc1Cl)CCCC3` (centres undefined) has an EC50 of 73 µM.

System: not listed separately
Experiment: in vitro
Details: human, HepG2 cells
Remark: another data set of the same source
For `COc1ccc2cc(C3C4=C(CC(C)(C)CC4=O)Oc4nc5c(c(N)c43)CCC5)c(Cl)nc2c1` (centres undefined), the selectivity ratio was 11.

System: not listed separately
Experiment: in vitro
Details: human, SH-SY5Y cells
Remark: another data set of the same source
Description: Neurotoxicity in human SH-SY5Y cells assessed as cell viability at 0.1 uM after 24 hrs by XTT assay relative to control
For `CCOC(=O)C1=C(C)Oc2nc3c(c(N)c2C1c1cc2ccc(OC)cc2nc1Cl)CCCC3` (centres undefined), the viability at 24 h, 0.1 µM was 103%.
For `COC(=O)C1=C(C)Oc2nc3c(c(N)c2C1c1cc2ccc(OC)cc2nc1Cl)CCCCC3` (centres undefined), the viability at 24 h, 0.1 µM was 90.8%.
`COc1ccc2cc(C3C4=C(CC(C)(C)CC4=O)Oc4nc5c(c(N)c43)CCC5)c(Cl)nc2c1` (centres undefined) showed a viability at 24 h, 0.1 µM of 85%.
With `CCOC(=O)C1=C(C)Oc2nc3c(c(N)c2C1c1cc2cc(OC)ccc2nc1Cl)CCCC3` (centres undefined) the viability at 24 h, 0.1 µM was 128%.

System: not listed separately
Experiment: in vitro
Details: human, SH-SY5Y cells
Remark: another data set of the same source
Description: Neurotoxicity in human SH-SY5Y cells assessed as cell viability at 1 uM after 24 hrs by XTT assay relative to control
`CCOC(=O)C1=C(C)Oc2nc3c(c(N)c2C1c1cc2ccc(OC)cc2nc1Cl)CCCC3` (centres undefined) showed a viability at 24 h, 1 µM of 130%.
For `COC(=O)C1=C(C)Oc2nc3c(c(N)c2C1c1cc2ccc(OC)cc2nc1Cl)CCCCC3` (centres undefined), the viability at 24 h, 1 µM was 93.2%.
Work on `COc1ccc2cc(C3C4=C(CC(C)(C)CC4=O)Oc4nc5c(c(N)c43)CCC5)c(Cl)nc2c1` (centres undefined) yielded a viability at 24 h, 1 µM of 91.6%.
`CCOC(=O)C1=C(C)Oc2nc3c(c(N)c2C1c1cc2cc(OC)ccc2nc1Cl)CCCC3` (centres undefined) showed a viability at 24 h, 1 µM of 110%.

System: not listed separately
Experiment: in vitro
Details: human, SH-SY5Y cells
Remark: another data set of the same source
Description: Neurotoxicity in human SH-SY5Y cells assessed as cell viability at 5 uM after 24 hrs by XTT assay relative to control
For `CCOC(=O)C1=C(C)Oc2nc3c(c(N)c2C1c1cc2ccc(OC)cc2nc1Cl)CCCC3` (centres undefined), the viability at 24 h, 5 µM was 131%.
With `COC(=O)C1=C(C)Oc2nc3c(c(N)c2C1c1cc2ccc(OC)cc2nc1Cl)CCCCC3` (centres undefined) the viability at 24 h, 5 µM was 95.9%.
In the case of `COc1ccc2cc(C3C4=C(CC(C)(C)CC4=O)Oc4nc5c(c(N)c43)CCC5)c(Cl)nc2c1` (centres undefined), the viability at 24 h, 5 µM is reported as 113%.
Molecule `CCOC(=O)C1=C(C)Oc2nc3c(c(N)c2C1c1cc2cc(OC)ccc2nc1Cl)CCCC3` (centres undefined) has a viability at 24 h, 5 µM of 135%.
